Where two headings read alike, the source gives them in different places.
Key:
[1] = system: tumor specific Hsp90 (NCI-N417 cell lysate); test: Hsp90 binding FP competition assay; design: species or system human; settings: Table 2, GM-cy3B 5 nM
Text: There are several assays that have been developed to identify novel Hsp90 inhibitors based on the interaction of small molecules with recombinant Hsp90 protein, either yeast or human. To measure a therapeutically significant state of Hsp90, an FP assay that uses human cancer cell lysates instead of recombinant protein (Du, Moulick et al. J. Biomol. Screen, 2007, 12, 915-24) was utilized. It probes the interaction of small molecules with tumor-specific Hsp90 and may therefore lead to inhibitors that are not only selective for cancer cells but also specific for a particular malignancy.
The dose-response effect of the compounds was tested in Hsp90 binding FP competition assays to obtain the IC50 of the compounds. The Hsp90 FP competition assay was performed in 384-well black plate using the small-cell lung carcinoma (SCLC) cell line NCI-N417 as a source of tumor specific Hsp90 and the Cy3B-labeled geldanamycin (GM-cy3B) as the FP ligand. The compound was dissolved in DMSO and added at several concentrations to the reaction buffer containing both GM-cy3B (5 nM) and NCI-N417 cell lysate (1 μg/well) in a final volume of 50 μL. Free GM-cy3B (5 nM) and bound GM-cy3B with NCI-N417 cell lysate (5 nM GM-cy3B and 1 μg/well of NCI-N417 cell lysate) were included as controls in each plate. After incubating at room temperature for 2 to 16 hours, the polarization values were measured and expressed as millipolarization (mP) units using Analyst HT plate reader (Molecular Devices). The competitive efficiency of the compounds were expressed as a percentage of control and calculated according to the following equation:
% of control=((mPc−mPf)/(mPb−mPf))×100
where mPc is the recorded mP from compound wells, mPf is the average recorded mP from GM-cy3B-only wells, and mPb is the average recorded mP from wells containing both GM-cy3B and NCI-N417 lysate. IC50 values were determined using a nonlinear regression analysis as implemented in Prism 4.0 (Graphpad Software).

[2] = system: Her2 protein in MCF-7 breast cancer cells; test: Cell-based Her2 degradation assay by Western Blot; settings: Homo sapiens, read-out: IC50, Her2 degradation WB
Text: Addition of Hsp90 inhibitors to cancer cells induces the proteasomal degradation of a subset of proteins involved in signal transduction such as Raf1 kinase, Akt and certain transmembrane tyrosine kinases such as Her2. Thus, Her2 degradation in cells is a functional read-out of Hsp90 inhibition. Correlation between Hsp90 binding and Her2 degradation in cancer cells is indicative of a selective biological effect in these cells via Hsp90.
A Western blot-based assay was used to measure the cellular level of Her2 protein in MCF-7 breast cancer cell lysates collected after 24 hours of compound treatment. […] Then 2×10^5 cells were seeded in 24 well plates in 500 μl PRMI1640 medium and allowed to attach overnight. The compounds were dissolved in DMSO, added to the wells, and incubated for 24 hours. The cells were washed using ice-cold phosphate-buffered saline (PBS) and lysed in 1% NP40 lysis buffer (10 mM HEPES, pH 7.4, 150 mM NaCl, 1% Nonident P-40, 5 mM Pyrophosphate, 5 mM NaF, 2 mM Orthovanadate, 10 ug/ml Aprotinin, 10 ug/ml Leupeptin, 1 mM PMSF). After boiling with 6×SDS sample buffer, the cell lysates were separated by SDS-PAGE and transferred to nitrocellulose membrane. The membranes were blocked with 5% milk in tris-buffered saline buffer.

[3] = system: Her2 protein in SKBr3 breast cancer cells; test: Cell-based Her2 degradation assay by Cytoblot; settings: Homo sapiens, SK-BR-3, Table 2, values with asterisk, 24 hours
Protocol: Cellular Her2 level after compound treatment was also monitored by microtiter-based Her2 degradation assay, Cytoblot assay (Huezo, Vilenchik et al. Chem. Biol., 2003, 10, 629-634). This is a cell-based assay that enables the quantitative analysis of intracellular levels of Her2 protein.
The human breast cancer cell lines SKBr3 were maintained in RPMI1640 medium supplemented with 10% FBS. 3000 cells in 100 μl of growth medium were plated per well in black, clear-bottom microtiter plates (Corning) and allowed to attach for at least 24 hours at 37° C. and 5% CO2. Compounds at different doses or vehicle (DMSO) were carefully added to the wells and incubated for 24 hours. The cells were washed twice with ice-cold Tris buffer saline (TBS) containing 0.1% Tween 20 (TBST) and fixed with ice-cold methanol. After washing with TBST, the plate was incubated at RT for 1 hour with SuperBlock (Pierce 37535) and overnight at 4° C. with the anti-Her-2 antibody (Santa Cruz Biotechnology). The plate was then washed with TBST and incubated at RT for 2 hours with an anti-rabbit HRP-linked antibody (Sigma A0545). The chemiluminescent substrate solution (Pierce 38040) was added and the plate was read 5 minutes later in an Analyst HT plate reader (Molecular Devices). Luminescence readings resulting from compound-treated cells versus untreated cells (vehicle treated) were quantified and plotted against compound concentrations to give the IC50 values (defined as concentration of compound required to degrade 50% of total Her2).

[4] = system: SKBR3 breast cancer cells; test: Cancer cell growth inhibition assay (CellTiter-Blue); assay type: cell-based; settings: Homo sapiens, SK-BR-3, Table 2, 96 hours
Protocol: The effects of the compounds on cancer cell growth were determined using the CellTiter-Blue cell viability assay (Promega). CellTiter-Blue® Cell Viability is based on the ability of living cells to convert a redox dye (resazurin) into a fluorescent end product (resorufin).
The SKBR3 breast cancer cells were plated in 384-well microtiter plates (Costar) and allowed to attach overnight. After treatment with either compounds or vehicle (DMSO) for 96 hours, the cells were measured for their viability by CellTiter-Blue. Briefly, 10 μl of CelTiter-Blue were added to each well in 384-well plates and incubated at 37° C. for 4 hours. The fluorescence intensity (FI) was measured using the Analyst HT plate reader (Molecular Devices) with an excitation at 545 nm and emission at 595 nm. The IC50 was calculated as the compound concentration that inhibits cell viability by 50% compared with vehicle control wells. The IC50 values were determined as described above.

[5] = MCF7, Table 2, values without asterisk, MCF-7 cells, 24 hours

| IC50 [1] | IC50 [2, 5] | IC50 [3] | IC50 [4] | SMILES | IC50 ([2]; MCF7, 24 h) |
| --- | --- | --- | --- | --- | --- |
| 130 nM | 2500 to 5000 nM | 3.94 µM | 1420 nM | COc1ccc(NC2=CC(=O)C(=O)c3ccccc32)c(OC)c1 [Compound 53] | – |
| 540 nM | – | 1.68 µM | 430 nM | O=C1C=C(N2CCC(O)(c3ccc(Cl)cc3)CC2)c2ccccc2C1=O [Compound 58] | – |
| 1310 nM | – | 26.1 µM | > 20000 nM | O=C1C=C(N2CCN(S(=O)(=O)c3cc(Cl)cc(Cl)c3O)CC2)c2ccccc2C1=O [Compound 63] | – |
| 40 nM | 2500 to 5000 nM | 3.76 µM | 3170 nM | O=C1C=C(Nc2ccc3c(c2)OCO3)c2ccccc2C1=O [Compound 55] | – |
| 90 nM | 1250 to 2500 nM | 3.82 µM | 1240 nM | COc1ccccc1NC1=CC(=O)C(=O)c2ccccc21 [Compound 50] | – |
| 10 nM | 2500 to 5000 nM | 4.17 µM | 7460 nM | COc1cc(NC2=CC(=O)C(=O)c3ccccc32)cc(OC)c1 [Compound 54] | – |
| 640 nM | – | 11.4 µM | 210 nM | Cc1cc(C)nc(NC2=CC(=O)C(=O)c3ccccc32)c1 [Compound 67] | – |
| 890 nM | – | 3.9 µM | 220 nM | O=C1C=C(N2CCN(c3cccc4ccccc34)CC2)c2ccccc2C1=O [Compound 57] | – |
| 390 nM | – | 4.83 µM | 3180 nM | COc1ccc(NC2=CC(=O)C(=O)c3ccccc32)cc1OC [Compound 61] | – |
| 770 nM | – | 4.27 µM | 620 nM | O=C1C=C(N2CCN(Cc3cccc4ccccc34)CC2)c2ccccc2C1=O [Compound 59] | – |
| 530 nM | – | 15.3 µM | 3660 nM | O=C1C=C(Nc2cc3c(cc2Br)OCO3)c2ccccc2C1=O [Compound 65] | – |
| 570 nM | – | 29.1 µM | > 20000 nM | COc1ccc(S(=O)(=O)N2CCN(C3=CC(=O)C(=O)c4ccccc43)CC2)cc1OC [Compound 64] | – |
| 1860 nM | 2500 to 5000 nM | 18.6 µM | 2750 nM | CC(C)CN(CC(C)C)C1=CC(=O)C(=O)c2ccccc21 [Compound 49] | – |
| 230 nM | 1250 to 2500 nM | 2.22 µM | 950 nM | O=C1C=C(N2CCC(Cc3ccccc3)CC2)c2ccccc2C1=O [Compound 45] | – |
| 530 nM | – | 1.9 µM | 300 nM | O=C1C=C(N2CCN(Cc3cccc(C(F)(F)F)c3)CC2)c2ccccc2C1=O [Compound 56] | – |

| SMILES | IC50 [1] | IC50 [2, 5] | IC50 [3] | IC50 [4] | IC50 ([2]; MCF7, 24 h) |
| --- | --- | --- | --- | --- | --- |
| COc1ccc(NC2=CC(=O)C(=O)c3ccccc32)cc1 [Compound 51] | 70 nM | – | 3.62 µM | 16000 nM | 1250 to 2500 nM |
